Experimental data: article PMC6200358 (Science Advances, 2018)

Legend:
human CB2R = human CB2R (Homo sapiens, UniProt P34972); assay: [35S]GTPγS binding assay, CHO-hCB2 membranes; assay type: biochemical
human CB1R = human CB1R (Homo sapiens, UniProt P21554); assay: [35S]GTPγS binding assay, CHO-hCB1 membranes; assay type: biochemical
BALB/c mice = assay: Tetrad test; assay type: in vivo, mouse; conditions: pretreatment at 5 mg/kg

Sequence of human CB2R (P34972 whole entry): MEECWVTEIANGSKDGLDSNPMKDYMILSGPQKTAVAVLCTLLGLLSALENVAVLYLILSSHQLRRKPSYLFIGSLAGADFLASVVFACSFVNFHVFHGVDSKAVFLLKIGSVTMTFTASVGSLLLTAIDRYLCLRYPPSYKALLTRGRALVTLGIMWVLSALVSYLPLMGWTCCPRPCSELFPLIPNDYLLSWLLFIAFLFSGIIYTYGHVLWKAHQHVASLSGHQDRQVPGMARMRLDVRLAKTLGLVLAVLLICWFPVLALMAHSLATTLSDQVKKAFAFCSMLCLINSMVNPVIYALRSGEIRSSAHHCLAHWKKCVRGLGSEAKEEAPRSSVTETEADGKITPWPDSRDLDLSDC
Sequence of human CB1R (P21554 whole entry): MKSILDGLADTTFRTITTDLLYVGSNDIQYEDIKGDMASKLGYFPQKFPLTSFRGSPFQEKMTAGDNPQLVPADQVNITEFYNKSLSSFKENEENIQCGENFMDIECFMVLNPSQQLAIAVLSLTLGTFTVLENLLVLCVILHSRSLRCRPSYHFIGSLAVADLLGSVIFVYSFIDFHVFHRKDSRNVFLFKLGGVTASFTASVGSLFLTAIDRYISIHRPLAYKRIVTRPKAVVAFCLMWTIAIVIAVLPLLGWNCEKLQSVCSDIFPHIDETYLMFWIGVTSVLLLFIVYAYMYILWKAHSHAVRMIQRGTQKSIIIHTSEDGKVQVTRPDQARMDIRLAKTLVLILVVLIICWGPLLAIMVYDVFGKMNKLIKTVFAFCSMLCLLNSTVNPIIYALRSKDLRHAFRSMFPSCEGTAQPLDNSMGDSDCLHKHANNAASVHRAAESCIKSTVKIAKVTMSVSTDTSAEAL

Compound: CCCCCCC(C)(C)c1ccc([C@@H]2C[C@H](O)CC[C@H]2CCCO)c(O)c1 [CP55,940]
- CB2R agonist type (full or partial agonist) (human CB2R; [35S]GTPγS binding): full
- Emax (human CB2R; read-out: Receptor activation CB2R (Emax)): 194 ± 5%
- CB1R agonist type (full or partial agonist) (human CB1R; [35S]GTPγS binding): full
- Emax (human CB1R; read-out: Receptor activation CB1R (Emax)): 173 ± 6%

Compound: Cc1c(C(=O)NN2CCCCC2)nn(-c2ccc(Cl)cc2Cl)c1-c1ccc(Cl)cc1 [rimonabant, Rimonabant]
- Blockade of the tetrad effects of PET and THC diastereoisomers (BALB/c mice): fully abolished
